Laboratory results reported in paper PMC5290327, “SC83288 is a clinical development candidate for the treatment of severe malaria” (Nature Communications, 2017).

Key:
Assay in all cases: KINOMEscan
Type in all cases: binding
Settings in all cases: read-out: Remaining enzyme activity
ABL1(H396P) = target: T1, ABL1(H396P) (Homo sapiens, UniProt P00519, H396P)
T1 construct: purchased Ambit (DiscoverX) KINOMEscan; Cerep
In short: (§1)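 Immobilized ligand beads, biotin-blocked and washed in SeaBlock buffer with BSA, Tween 20 and DTT, are incubated with DNA-tagged kinase and 10 μM SC81458. Compound occupying the active site lowers bead-bound kinase, which is quantified by qPCR of the tag.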

ACVR2a = target: T2, ACVR2a (Homo sapiens, UniProt P27037)
T2 construct: purchased Ambit (DiscoverX) KINOMEscan; Cerep
In short: as §1

AXL = target: T3, AXL (Homo sapiens, UniProt P30530)
T3 construct: purchased Ambit (DiscoverX) KINOMEscan; Cerep
In short: as §1

BRK = target: T4, BRK (Homo sapiens, UniProt Q13882)
T4 construct: purchased Ambit (DiscoverX) KINOMEscan; Cerep
In short: as §1

BTK = target: T5, BTK (Homo sapiens, UniProt Q06187)
T5 construct: purchased Ambit (DiscoverX) KINOMEscan; Cerep
In short: as §1

CDC2L2 = target: T6, CDC2L2 (Homo sapiens, UniProt Q9UQ88)
T6 construct: purchased Ambit (DiscoverX) KINOMEscan; Cerep
In short: as §1

CDKL5 = target: T7, CDKL5 (Homo sapiens, UniProt O76039)
T7 construct: purchased Ambit (DiscoverX) KINOMEscan; Cerep
In short: as §1

CLK2 = target: T8, CLK2 (Homo sapiens, UniProt P49760)
T8 construct: purchased Ambit (DiscoverX) KINOMEscan; Cerep
In short: as §1

CLK3 = target: T9, CLK3 (Homo sapiens, UniProt P49761)
T9 construct: purchased Ambit (DiscoverX) KINOMEscan; Cerep
In short: as §1

DCAMKL1 = target: T10, DCAMKL1 (Homo sapiens, UniProt O15075)
T10 construct: purchased Ambit (DiscoverX) KINOMEscan; Cerep
In short: as §1

DRAK1 = target: T11, DRAK1 (Homo sapiens, UniProt Q9UEE5)
T11 construct: purchased Ambit (DiscoverX) KINOMEscan; Cerep
In short: as §1

DYRK1b = target: T12, DYRK1b (Homo sapiens, UniProt Q9Y463)
T12 construct: purchased Ambit (DiscoverX) KINOMEscan; Cerep
In short: as §1

EPHB1 = target: T13, EPHB1 (Homo sapiens, UniProt P54762)
T13 construct: purchased Ambit (DiscoverX) KINOMEscan; Cerep
In short: as §1

ERK5 = target: T14, ERK5 (Homo sapiens, UniProt Q13164)
T14 construct: purchased Ambit (DiscoverX) KINOMEscan; Cerep
In short: as §1

FES = target: T15, FES (Homo sapiens, UniProt P07332)
T15 construct: purchased Ambit (DiscoverX) KINOMEscan; Cerep
In short: as §1

GSK3a = target: T16, GSK3a (Homo sapiens, UniProt P49840)
T16 construct: purchased Ambit (DiscoverX) KINOMEscan; Cerep
In short: as §1

HIPK1 = target: T17, HIPK1 (Homo sapiens, UniProt Q86Z02)
T17 construct: purchased Ambit (DiscoverX) KINOMEscan; Cerep
In short: as §1

IRAK3 = target: T18, IRAK3 (Homo sapiens, UniProt Q9Y616)
T18 construct: purchased Ambit (DiscoverX) KINOMEscan; Cerep
In short: as §1

KIT(V559D) = target: T19, KIT(V559D) (Homo sapiens, UniProt P10721, V559D)
T19 construct: purchased Ambit (DiscoverX) KINOMEscan; Cerep
In short: as §1

LIMK1 = target: T20, LIMK1 (Homo sapiens, UniProt P53667)
T20 construct: purchased Ambit (DiscoverX) KINOMEscan; Cerep
In short: as §1

MEK1 = target: T21, MEK1 (Homo sapiens, UniProt Q02750)
T21 construct: purchased Ambit (DiscoverX) KINOMEscan; Cerep
In short: as §1

NDR1 = target: T22, NDR1 (Homo sapiens, UniProt Q15208)
T22 construct: purchased Ambit (DiscoverX) KINOMEscan; Cerep
In short: as §1

PFTK1 = target: T23, PFTK1 (Homo sapiens, UniProt O94921)
T23 construct: purchased Ambit (DiscoverX) KINOMEscan; Cerep
In short: as §1

PIK3Cd = target: T24, PIK3Cd (Homo sapiens, UniProt O00329)
T24 construct: purchased Ambit (DiscoverX) KINOMEscan; Cerep
In short: as §1

PRKR = target: T25, PRKR (Homo sapiens, UniProt P19525)
T25 construct: purchased Ambit (DiscoverX) KINOMEscan; Cerep
In short: as §1

ROCK2 = target: T26, ROCK2 (Homo sapiens, UniProt O75116)
T26 construct: purchased Ambit (DiscoverX) KINOMEscan; Cerep
In short: as §1

[1] = target: T27, RPS6KA3(Kin.Dom.1-N-term) (Homo sapiens, UniProt P51812)
T27 construct: RPS6KA3(Kin.Dom.1-N-term); purchased Ambit (DiscoverX) KINOMEscan; Cerep
In short: as §1

SLK = target: T28, SLK (Homo sapiens, UniProt Q9H2G2)
T28 construct: purchased Ambit (DiscoverX) KINOMEscan; Cerep
In short: as §1

SRPK1 = target: T29, SRPK1 (Homo sapiens, UniProt Q96SB4)
T29 construct: purchased Ambit (DiscoverX) KINOMEscan; Cerep
In short: as §1

TAOK1 = target: T30, TAOK1 (Homo sapiens, UniProt Q7L7X3)
T30 construct: purchased Ambit (DiscoverX) KINOMEscan; Cerep
In short: as §1

TIE1 = target: T31, TIE1 (Homo sapiens, UniProt P35590)
T31 construct: purchased Ambit (DiscoverX) KINOMEscan; Cerep
In short: as §1

[2] = target: T32, TYK2(JHdomain-speudokinase) (Homo sapiens, UniProt P29597)
T32 construct: TYK2(JHdomain-speudokinase); purchased Ambit (DiscoverX) KINOMEscan; Cerep
In short: as §1

ULK1 = target: T33, ULK1 (Homo sapiens, UniProt O75385)
T33 construct: purchased Ambit (DiscoverX) KINOMEscan; Cerep
In short: as §1

T2 sequence (P27037 20-513): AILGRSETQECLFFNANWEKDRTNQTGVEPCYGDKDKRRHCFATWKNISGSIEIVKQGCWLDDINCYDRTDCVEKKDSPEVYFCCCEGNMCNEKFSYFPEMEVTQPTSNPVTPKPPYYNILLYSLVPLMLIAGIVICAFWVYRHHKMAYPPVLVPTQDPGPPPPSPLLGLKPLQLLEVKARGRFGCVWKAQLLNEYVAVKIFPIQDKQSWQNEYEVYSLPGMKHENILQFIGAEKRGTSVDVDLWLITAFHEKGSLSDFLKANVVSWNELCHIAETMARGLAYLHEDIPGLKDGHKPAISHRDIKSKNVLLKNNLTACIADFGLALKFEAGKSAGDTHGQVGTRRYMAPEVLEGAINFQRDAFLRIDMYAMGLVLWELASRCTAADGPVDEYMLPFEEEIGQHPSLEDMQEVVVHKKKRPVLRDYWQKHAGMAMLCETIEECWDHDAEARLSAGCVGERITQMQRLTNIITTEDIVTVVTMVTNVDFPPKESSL
T15 sequence (P07332 whole entry): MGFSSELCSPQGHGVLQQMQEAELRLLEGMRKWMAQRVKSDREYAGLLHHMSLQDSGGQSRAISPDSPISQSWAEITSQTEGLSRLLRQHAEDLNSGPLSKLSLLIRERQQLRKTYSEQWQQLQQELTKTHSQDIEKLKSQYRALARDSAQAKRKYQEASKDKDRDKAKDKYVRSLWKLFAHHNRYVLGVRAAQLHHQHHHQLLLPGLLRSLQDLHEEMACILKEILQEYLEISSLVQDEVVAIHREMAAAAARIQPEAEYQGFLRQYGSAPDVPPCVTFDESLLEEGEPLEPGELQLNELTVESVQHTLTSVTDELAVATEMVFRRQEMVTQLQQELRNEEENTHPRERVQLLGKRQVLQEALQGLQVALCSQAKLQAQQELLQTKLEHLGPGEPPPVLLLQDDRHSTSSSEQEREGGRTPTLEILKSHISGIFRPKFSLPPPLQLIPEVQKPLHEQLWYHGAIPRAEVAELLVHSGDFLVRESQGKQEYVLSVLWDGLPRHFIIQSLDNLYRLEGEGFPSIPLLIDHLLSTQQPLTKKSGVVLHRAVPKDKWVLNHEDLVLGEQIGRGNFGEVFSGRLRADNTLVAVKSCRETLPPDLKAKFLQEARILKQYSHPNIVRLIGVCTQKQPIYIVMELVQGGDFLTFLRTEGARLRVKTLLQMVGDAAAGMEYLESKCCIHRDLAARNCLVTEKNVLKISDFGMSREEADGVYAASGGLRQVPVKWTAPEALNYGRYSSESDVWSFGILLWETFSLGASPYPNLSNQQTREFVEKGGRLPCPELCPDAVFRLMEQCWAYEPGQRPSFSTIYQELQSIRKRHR
T21 sequence (Q02750 whole entry): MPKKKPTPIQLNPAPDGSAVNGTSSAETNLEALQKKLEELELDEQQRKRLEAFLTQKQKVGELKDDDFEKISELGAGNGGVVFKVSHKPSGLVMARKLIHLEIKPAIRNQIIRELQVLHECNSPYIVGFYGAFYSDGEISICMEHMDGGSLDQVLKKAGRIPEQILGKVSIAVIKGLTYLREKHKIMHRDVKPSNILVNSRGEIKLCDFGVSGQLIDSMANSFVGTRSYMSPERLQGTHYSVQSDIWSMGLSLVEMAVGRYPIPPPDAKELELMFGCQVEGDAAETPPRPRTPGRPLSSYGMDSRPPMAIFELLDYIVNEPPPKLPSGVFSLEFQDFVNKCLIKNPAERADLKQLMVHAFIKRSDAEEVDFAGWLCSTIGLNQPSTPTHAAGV
T28 sequence (Q9H2G2 whole entry): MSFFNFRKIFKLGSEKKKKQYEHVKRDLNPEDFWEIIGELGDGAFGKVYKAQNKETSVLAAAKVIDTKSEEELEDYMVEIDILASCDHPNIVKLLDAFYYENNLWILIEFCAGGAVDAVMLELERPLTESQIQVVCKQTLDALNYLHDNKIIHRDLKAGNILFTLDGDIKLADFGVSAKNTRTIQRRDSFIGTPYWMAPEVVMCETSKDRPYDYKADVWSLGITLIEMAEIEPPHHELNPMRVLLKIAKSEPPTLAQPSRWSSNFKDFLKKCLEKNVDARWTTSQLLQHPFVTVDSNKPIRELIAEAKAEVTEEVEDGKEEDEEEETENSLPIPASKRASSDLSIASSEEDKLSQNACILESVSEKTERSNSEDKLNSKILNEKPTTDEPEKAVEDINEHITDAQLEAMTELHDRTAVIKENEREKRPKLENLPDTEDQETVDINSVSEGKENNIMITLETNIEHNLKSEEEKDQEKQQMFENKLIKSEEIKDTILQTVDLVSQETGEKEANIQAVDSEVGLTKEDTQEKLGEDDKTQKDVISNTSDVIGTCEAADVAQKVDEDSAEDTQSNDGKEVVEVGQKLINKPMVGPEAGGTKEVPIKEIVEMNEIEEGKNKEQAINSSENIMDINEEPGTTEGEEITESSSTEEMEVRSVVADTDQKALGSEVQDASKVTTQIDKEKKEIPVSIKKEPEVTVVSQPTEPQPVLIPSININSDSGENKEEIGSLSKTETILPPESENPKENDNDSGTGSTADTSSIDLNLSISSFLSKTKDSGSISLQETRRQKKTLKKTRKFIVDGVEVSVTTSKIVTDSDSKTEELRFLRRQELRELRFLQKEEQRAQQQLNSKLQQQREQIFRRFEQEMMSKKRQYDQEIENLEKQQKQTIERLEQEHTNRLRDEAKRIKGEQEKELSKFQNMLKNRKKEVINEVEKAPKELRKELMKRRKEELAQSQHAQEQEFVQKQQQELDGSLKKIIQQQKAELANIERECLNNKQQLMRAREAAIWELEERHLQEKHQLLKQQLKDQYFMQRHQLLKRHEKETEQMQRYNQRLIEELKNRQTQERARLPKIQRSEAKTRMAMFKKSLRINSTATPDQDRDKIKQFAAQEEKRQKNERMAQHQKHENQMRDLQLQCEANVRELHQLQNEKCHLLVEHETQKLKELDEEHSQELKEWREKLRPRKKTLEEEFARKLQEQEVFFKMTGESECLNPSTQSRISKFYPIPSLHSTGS
T33 sequence (O75385 whole entry): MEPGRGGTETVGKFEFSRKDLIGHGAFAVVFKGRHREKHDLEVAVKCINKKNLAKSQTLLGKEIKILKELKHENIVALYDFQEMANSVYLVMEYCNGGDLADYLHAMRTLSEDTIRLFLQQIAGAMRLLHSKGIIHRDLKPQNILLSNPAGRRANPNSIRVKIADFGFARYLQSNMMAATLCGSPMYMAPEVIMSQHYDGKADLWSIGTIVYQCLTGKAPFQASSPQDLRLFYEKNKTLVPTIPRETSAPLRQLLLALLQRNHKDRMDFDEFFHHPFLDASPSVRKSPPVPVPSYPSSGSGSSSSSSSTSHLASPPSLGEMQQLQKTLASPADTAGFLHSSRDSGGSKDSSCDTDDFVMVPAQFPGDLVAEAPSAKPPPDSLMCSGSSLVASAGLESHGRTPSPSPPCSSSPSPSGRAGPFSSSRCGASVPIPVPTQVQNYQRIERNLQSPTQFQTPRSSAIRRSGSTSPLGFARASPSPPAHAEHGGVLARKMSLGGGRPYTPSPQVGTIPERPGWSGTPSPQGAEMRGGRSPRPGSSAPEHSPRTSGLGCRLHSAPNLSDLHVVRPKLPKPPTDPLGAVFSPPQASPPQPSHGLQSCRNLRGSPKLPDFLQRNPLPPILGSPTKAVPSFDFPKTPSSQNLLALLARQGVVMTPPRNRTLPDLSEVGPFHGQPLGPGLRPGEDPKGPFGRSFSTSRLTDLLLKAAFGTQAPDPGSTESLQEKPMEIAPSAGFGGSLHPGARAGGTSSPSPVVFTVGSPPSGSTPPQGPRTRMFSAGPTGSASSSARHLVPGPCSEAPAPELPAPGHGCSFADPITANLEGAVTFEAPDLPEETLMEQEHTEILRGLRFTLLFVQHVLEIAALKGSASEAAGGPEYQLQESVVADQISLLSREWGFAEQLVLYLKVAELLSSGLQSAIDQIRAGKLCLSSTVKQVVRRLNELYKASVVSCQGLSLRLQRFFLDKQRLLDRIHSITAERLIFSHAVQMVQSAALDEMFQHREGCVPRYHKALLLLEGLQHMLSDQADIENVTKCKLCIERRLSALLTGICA
T20 sequence (P53667 whole entry): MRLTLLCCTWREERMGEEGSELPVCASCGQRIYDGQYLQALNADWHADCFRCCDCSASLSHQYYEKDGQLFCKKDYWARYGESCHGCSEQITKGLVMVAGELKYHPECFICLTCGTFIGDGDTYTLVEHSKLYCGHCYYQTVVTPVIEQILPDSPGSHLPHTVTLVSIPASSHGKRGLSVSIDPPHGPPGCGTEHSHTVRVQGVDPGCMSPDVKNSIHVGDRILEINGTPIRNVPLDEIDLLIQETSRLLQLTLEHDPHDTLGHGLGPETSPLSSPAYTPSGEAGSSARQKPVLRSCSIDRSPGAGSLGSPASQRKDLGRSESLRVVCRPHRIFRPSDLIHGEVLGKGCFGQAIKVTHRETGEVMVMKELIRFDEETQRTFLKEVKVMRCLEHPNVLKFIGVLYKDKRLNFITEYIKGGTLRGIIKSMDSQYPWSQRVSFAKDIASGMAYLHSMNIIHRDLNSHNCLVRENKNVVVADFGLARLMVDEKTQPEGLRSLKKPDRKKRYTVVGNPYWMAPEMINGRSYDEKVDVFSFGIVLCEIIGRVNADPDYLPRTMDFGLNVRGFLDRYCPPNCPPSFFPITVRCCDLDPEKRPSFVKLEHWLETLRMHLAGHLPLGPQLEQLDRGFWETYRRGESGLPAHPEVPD
T32 sequence (P29597 556-888 limits assumed): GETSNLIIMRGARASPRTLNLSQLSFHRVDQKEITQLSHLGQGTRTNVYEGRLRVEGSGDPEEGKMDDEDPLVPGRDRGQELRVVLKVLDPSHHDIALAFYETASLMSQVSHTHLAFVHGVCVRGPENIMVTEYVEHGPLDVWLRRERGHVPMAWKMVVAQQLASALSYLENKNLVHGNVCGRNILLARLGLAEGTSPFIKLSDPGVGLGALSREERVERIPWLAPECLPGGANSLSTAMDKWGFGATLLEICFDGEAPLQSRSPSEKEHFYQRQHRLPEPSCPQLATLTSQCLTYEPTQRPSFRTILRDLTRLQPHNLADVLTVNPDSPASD

Question: How did the remaining binding at 10 µM (ABL1(H396P)) turn out when CCCCN1CCN(C(=N)c2cccc(NC(=O)Nc3ccc(S(=O)(=O)NCc4ccc(S(N)(=O)=O)cc4)cc3)c2)CC1 [SC81458, 4-(3-(3-((4-butylpiperazin-1-yl)(imino)methyl)phenyl)ureido)-N-(4-sulfamoylbenzyl) benzenesulfonamide] was run?
Answer: Its remaining binding at 10 µM is 100%.

Question: What about the remaining binding at 10 µM (ACVR2a) of the same compound?
Answer: Its remaining binding at 10 µM is 100%.

Question: And the remaining binding at 10 µM (AXL)?
Answer: The remaining binding at 10 µM was 100%.

Question: What about the remaining binding at 10 µM (BRK) of the same compound?
Answer: The remaining binding at 10 µM was 100%.

Question: And the remaining binding at 10 µM (BTK)?
Answer: The remaining binding at 10 µM was 100%.

Question: What about the remaining binding at 10 µM (CDC2L2) of the same compound?
Answer: Its remaining binding at 10 µM is 100%.

Question: What about the remaining binding at 10 µM (CDKL5) of the same compound?
Answer: The remaining binding at 10 µM was 100%.

Question: What about the remaining binding at 10 µM (CLK2) of the same compound?
Answer: The remaining binding at 10 µM was 100%.

Question: And the remaining binding at 10 µM (CLK3)?
Answer: The remaining binding at 10 µM was 100%.

Question: And the remaining binding at 10 µM (DCAMKL1)?
Answer: The remaining binding at 10 µM was 100%.

Question: What about the remaining binding at 10 µM (DRAK1) of the same compound?
Answer: The remaining binding at 10 µM was 98%.

Question: What about the remaining binding at 10 µM (DYRK1b) of the same compound?
Answer: Its remaining binding at 10 µM is 87%.

Question: What about the remaining binding at 10 µM (EPHB1) of the same compound?
Answer: Its remaining binding at 10 µM is 84%.

Question: And the remaining binding at 10 µM (ERK5)?
Answer: The remaining binding at 10 µM was 100%.

Question: And the remaining binding at 10 µM (FES)?
Answer: The remaining binding at 10 µM was 100%.

Question: What about the remaining binding at 10 µM (GSK3a) of the same compound?
Answer: Its remaining binding at 10 µM is 100%.

Question: What about the remaining binding at 10 µM (HIPK1) of the same compound?
Answer: Its remaining binding at 10 µM is 100%.

Question: What about the remaining binding at 10 µM (IRAK3) of the same compound?
Answer: Its remaining binding at 10 µM is 69%.

Question: And the remaining binding at 10 µM (KIT(V559D))?
Answer: Its remaining binding at 10 µM is 100%.

Question: What about the remaining binding at 10 µM (LIMK1) of the same compound?
Answer: Its remaining binding at 10 µM is 76%.

Question: And the remaining binding at 10 µM (MEK1)?
Answer: Its remaining binding at 10 µM is 100%.

Question: And the remaining binding at 10 µM (NDR1)?
Answer: The remaining binding at 10 µM was 100%.

Question: What about the remaining binding at 10 µM (PFTK1) of the same compound?
Answer: Its remaining binding at 10 µM is 100%.

Question: What about the remaining binding at 10 µM (PIK3Cd) of the same compound?
Answer: Its remaining binding at 10 µM is 73%.

Question: And the remaining binding at 10 µM (PRKR)?
Answer: The remaining binding at 10 µM was 91%.

Question: What about the remaining binding at 10 µM (ROCK2) of the same compound?
Answer: The remaining binding at 10 µM was 76%.

Question: And the remaining binding at 10 µM [1]?
Answer: Its remaining binding at 10 µM is 100%.

Question: And the remaining binding at 10 µM (SLK)?
Answer: Its remaining binding at 10 µM is 100%.

Question: And the remaining binding at 10 µM (SRPK1)?
Answer: Its remaining binding at 10 µM is 100%.

Question: What about the remaining binding at 10 µM (TAOK1) of the same compound?
Answer: Its remaining binding at 10 µM is 100%.

Question: What about the remaining binding at 10 µM (TIE1) of the same compound?
Answer: The remaining binding at 10 µM was 99%.

Question: And the remaining binding at 10 µM [2]?
Answer: The remaining binding at 10 µM was 93%.

Question: And the remaining binding at 10 µM (ULK1)?
Answer: Its remaining binding at 10 µM is 100%.
